Measured values taken from patent US20130123481A1, “MODIFIED NUCLEOSIDES, NUCLEOTIDES, AND NUCLEIC ACIDS, AND USES THEREOF” (MODERNA THERAPEUTICS, priority 2011, published 2013).

Key:
rabbit reticulysates = experiment: G-CSF expression in rabbit reticulysates (ELISA); type: biochemical; details: 250 ng modified G-CSF mRNA in rabbit reticulysates
Method: (§1) To assess the activity of all our different chemical modifications in the context of a second open reading frame, we replicated experiments previously conducted using luciferase mRNA, with human G-CSF mRNA. […] The mutant T7 polymerase was obtained commercially (Durascribe® T7 Transcription kit (Cat. No. DS010925) (Epicentre®, Madison, Wis.).
(§2) The modified RNA in Tables 45 and 46 were transfected in vitro in HeLa cells or added to rabbit reticulysates (250 ng of modified mRNA) as indicated. […] In Table 45, “NT” means not tested.

HeLa cells [1] = experiment: G-CSF expression in HeLa cells (ELISA); type: cell-based, human; set-up: key to Protein (G-CSF; HeLa): the protein production of HeLa is judged by “+,” “+/−” and “−”; the protein production of HeLa is judged by “+,” “+/−” and “−”; the protein production of HeLa is judged by “+,” “+/−” and “−”; details: for G-CSF protein (pg/ml) HeLa cells: fully modified G-CSF mRNA transfected in HeLa cells, ELISA; for Protein (G-CSF; HeLa): Table 47 naturally occurring, *** = production seen in cell free translations
Method: as §1, §2

[2] = tested on: peripheral blood mononuclear cells (PBMC); experiment: In Vitro Screening in PBMC - G-CSF protein expression; type: cell-based, human; details: for G-CSF Protein Expression: 500 ng mRNA; for Protein (G-CSF; PBMC): Table 47 naturally occurring, background about 110 pg/ml
Source text: (§3) The supernatant was harvested and stored frozen until analyzed by ELISA to determine the G-CSF protein expression, and the induction of the cytokines interferon-alpha (IFN-α) and tumor necrosis factor alpha (TNF-α).

HeLa cells [3] = experiment: In vitro Screening in HeLa Cells - luciferase (RLU); type: cell-based, human; set-up: key to Protein (Luc; HeLa): the protein production of HeLa is judged by “+,” “+/−” and “−”; the protein production of HeLa is judged by “+,” “+/−” and “−”; the protein production of HeLa is judged by “+,” “+/−” and “−”; details: Table 47 naturally occurring; *** = production seen in cell free translations
Method: The 2′Fluoro-modified mRNA were then transfected into HeLa cells to assess protein production in a cell context and the same mRNA were also assessed in a cell-free rabbit reticulocyte system. A control of unmodified luciferase (natural luciferase) was used for both transcription experiments, a control of untreated and mock transfected (Lipofectamine 2000 alone) were also analyzed for the HeLa transfection and a control of no RNA was analyzed for the rabbit reticulysates.
For the HeLa transfection experiments, the day before transfection, 20,000 HeLa cells (ATCC no. CCL-2; Manassas, Va.) were harvested by treatment with Trypsin-EDTA solution (LifeTechnologies, Grand Island, N.Y.) and seeded in a total volume of 100 ul EMEM medium (supplemented with 10% FCS and 1× Glutamax) per well in a 96-well cell culture plate (Corning, Manassas, Va.). The cells were grown at […] in 5% CO2 atmosphere overnight. […] Lipofectamine 2000 (LifeTechnologies, Grand Island, N.Y.) was used as transfection reagent and 0.2 ul were diluted in 10 ul final volume of OPTI-MEM. After […] of incubation at room temperature, both solutions were combined and incubated an additional 15 minute at room temperature. Then the 20 ul combined solution was added to the 100 ul cell culture medium containing the HeLa cells and incubated at room temperature. After 18 to 22 hours of incubation cells expressing luciferase were lysed with 100 ul of Passive Lysis Buffer (Promega, Madison, Wis.) according to manufacturer instructions. Aliquots of the lysates were transferred to white opaque polystyrene 96-well plates (Corning, Manassas, Va.) and combined with 100 ul complete luciferase assay solution (Promega, Madison, Wis.). The lysate volumes were adjusted or diluted until no more than 2 mio relative light units (RLU) per well were detected for the strongest signal producing samples and the RLUs for each chemistry tested are shown in Table 42. The plate reader was a BioTek Synergy H1 (BioTek, Winooski, Vt.). The background signal of the plates without reagent was about 200 relative light units per well.
To evaluate using of 2′fluoro-modified mRNA in combination with other modification a series of mRNA were transcribed using either wild-type T7 polymerase (non-fluoro-containing compounds) or using mutant T7 polymerases (fluyoro-containing compounds) as described in Example 86. All modified mRNA were tested by in vitro transfection in HeLa cells.
After 18 to 22 hours of incubation cells expressing luciferase were lysed with 100 ul of Passive Lysis Buffer (Promega, Madison, Wis.) according to manufacturer instructions. Aliquots of the lysates were transferred to white opaque polystyrene 96-well plates (Corning, Manassas, Va.) and combined with 100 ul complete luciferase assay solution (Promega, Madison, Wis.). The lysate volumes were adjusted or diluted until no more than 2 mio relative light units (RLU) per well were detected for the strongest signal producing samples and the RLUs for each chemistry tested are shown in Table 44. The plate reader was a BioTek Synergy H1 (BioTek, Winooski, Vt.). The background signal of the plates without reagent was about 200 relative light units per well.

wild-type T7 polymerase = wild-type T7 polymerase (Escherichia phage T7, UniProt P00573); experiment: In Vitro Transcription with Wild-Type T7 Polymerase (transcription and capping yield); details: for IVT (G-CSF) / IVT (Luc): Table 47 naturally occurring, Pass/Fail; for IVT (G-CSF): G-CSF mRNA in vitro transcription; for IVT (Luc): luciferase mRNA in vitro transcription; for In vitro transcription Yield: wild-type T7 polymerase; for In vitro transcription Yield / Capping reaction Yield: OD260; for Capping reaction Yield: enzymatic capping
Chain of wild-type T7 polymerase (P00573 whole entry): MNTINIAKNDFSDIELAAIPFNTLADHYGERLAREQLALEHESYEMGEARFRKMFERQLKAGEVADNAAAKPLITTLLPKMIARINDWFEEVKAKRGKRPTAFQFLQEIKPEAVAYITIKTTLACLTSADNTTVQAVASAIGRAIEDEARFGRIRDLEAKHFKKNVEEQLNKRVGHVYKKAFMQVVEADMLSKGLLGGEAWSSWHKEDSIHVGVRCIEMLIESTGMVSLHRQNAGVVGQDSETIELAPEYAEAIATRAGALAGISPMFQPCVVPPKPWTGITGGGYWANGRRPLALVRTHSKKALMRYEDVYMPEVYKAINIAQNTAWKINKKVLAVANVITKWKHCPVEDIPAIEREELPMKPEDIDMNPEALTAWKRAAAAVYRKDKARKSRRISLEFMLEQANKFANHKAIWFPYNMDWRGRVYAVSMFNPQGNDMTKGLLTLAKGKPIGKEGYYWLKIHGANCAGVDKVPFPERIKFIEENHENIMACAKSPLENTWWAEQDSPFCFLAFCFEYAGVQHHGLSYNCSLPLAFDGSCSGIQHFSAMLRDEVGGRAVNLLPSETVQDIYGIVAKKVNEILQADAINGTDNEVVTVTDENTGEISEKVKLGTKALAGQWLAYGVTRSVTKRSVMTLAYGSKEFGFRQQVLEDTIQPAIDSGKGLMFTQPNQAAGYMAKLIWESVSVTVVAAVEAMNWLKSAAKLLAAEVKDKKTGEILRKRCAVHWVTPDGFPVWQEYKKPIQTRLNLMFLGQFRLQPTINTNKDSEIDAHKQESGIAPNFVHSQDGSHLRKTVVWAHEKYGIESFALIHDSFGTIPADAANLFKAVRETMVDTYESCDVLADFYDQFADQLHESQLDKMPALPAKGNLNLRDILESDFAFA
Method: The luciferase and G-CSF modified mRNA were also subjected to an enzymatic capping reaction and each modified mRNA capping reaction was evaluated for yield by spectrophometic measurement (OD260) and correct size assessed using bioanalyzer.

[4] = tested on: peripheral blood mononuclear cells (PBMC), interferon-alpha (IFN-α); type: cell-based, human; details: Table 47 naturally occurring; IFN-alpha, background about 70 pg/ml
Source text: as §3

| Compound | G-CSF protein (pg/ml) Rabbit reticulysates cells (rabbit reticulysates) | G-CSF protein (pg/ml) HeLa cells (HeLa cells [1]) | Protein (Luc; HeLa) (HeLa cells [3]) | IVT (G-CSF) (wild-type T7 polymerase) | IVT (Luc) (wild-type T7 polymerase) | Cytokines (G-CSF; PBMC) [4] | Protein (G-CSF; HeLa) (HeLa cells [1]) | Protein (G-CSF; PBMC) [2] | also measured |
| --- | --- | --- | --- | --- | --- | --- | --- | --- | --- |
| Cn1cnc2c(ncn2[C@@H]2O[C@H](CO)[C@@H](O)[C@H]2O)c1=N [Compound N1-methyl-adenosine, N1-methyl-adenosine] | 0 pg/mL | 4,773 pg/ml |  |  |  |  |  |  |  |
| COc1cn([C@@H]2O[C@H](CO)[C@@H](O)[C@H]2O)c(=O)[nH]c1=O [5-methoxyuridine] | 201,750 pg/ml | 1,715,909 pg/ml |  |  |  |  |  |  | G-CSF Protein Expression ([2]; PBMC Donor 1, 0.4 uL Lipofectamine 2000): 2,964 pg/ml; G-CSF Protein Expression ([2]; PBMC Donor 2): 1,832 pg/ml; G-CSF Protein Expression ([2]; PBMC Donor 3): 1,800 pg/ml |
| Cc1cn([C@@H]2O[C@H](CO)[C@@H](O)[C@H]2O)c(=O)nc1N [Compound 5-methyl-cytidine, 5-methyl-cytidine] | 79,375 pg/ml | 646,591 pg/ml |  |  |  |  |  |  |  |
| COC(=O)C=Cc1cn([C@@H]2O[C@H](CO)[C@@H](O)[C@H]2O)c(=O)[nH]c1=O [5-(2carbomethoxyvinyl) uridine] | 0 pg/mL | 1,364 pg/ml |  |  |  |  |  |  |  |
| N^6-methyladenosine (m^6A) |  |  | − | Pass | Pass | ++++ (“++++” means greater than 1,000 pg/ml interferon-alpha (IFN-alpha)) | − | +/− (“+/−” means 150-300 pg/ml G-CSF) |  |
| O=c1ccn([C@@H]2O[C@H](CO)[C@@H](O)[C@H]2O)c(=S)[nH]1 [2-thiouridine (s^2U)] |  |  | − | Pass | Pass | + (“+” means greater than 100 pg/ml IFN-alpha) | + | + (“+” means greater than 300 pg/ml G-CSF) |  |
| COC(=O)C=Cc1cn([C@@H]2O[C@H](CO)[C@@H](O)[C@H]2O)c(=O)[nH]c1=O [5 (2 carbomethoxyvinyl) uridine] |  |  |  |  |  |  |  |  | In vitro transcription Yield (wild-type T7 polymerase; G-CSF mRNA): 1.8 mg; Capping reaction Yield (wild-type T7 polymerase; G-CSF modified mRNA (wild-type T7)): 1.28 mg; In vitro transcription Yield (wild-type T7 polymerase; Luciferase mRNA): 0.89 mg; Capping reaction Yield (wild-type T7 polymerase; Luciferase modified mRNA (wild-type T7)): 0.54 mg |
| O=c1[nH]cc([C@@H]2O[C@H](CO)[C@@H](O)[C@H]2O)c(=O)[nH]1 [pseudouridine (Y)] |  |  | + | Pass | Pass | + (“+” means greater than 100 pg/ml IFN-alpha) | + | ++ (“++” means greater than 1,500 pg/ml G-CSF) |  |
| O=c1[nH]c(=O)n([C@@H]2O[C@H](CO)[C@@H](O)[C@H]2O)cc1Br [5-Bromo-uridine] | 72,000 pg/ml | 186,591 pg/ml |  |  |  |  |  |  |  |
| Nc1nc(=O)n([C@@H]2O[C@H](CO)[C@@H](O)[C@H]2O)cc1C=O [5-formylcytidine (f^5C)] |  |  | −*** | Pass | Pass | + (“+” means greater than 100 pg/ml IFN-alpha) | −*** |  |  |
